Test results from patent US20250000093A1, “HETEROCYCLIC COMPOUNDS FOR THE CONTROL OF INVERTEBRATE PESTS” (BASF SE, priority 2021, published 2025).

Key:
Format in all cases: in vivo
[1] = system: Myzus persicae; assay: B.2 Green peach aphid, systemic test on artificial diet in microtiter plates; details: for mortality at 2500 ppm: Myzus persicae, 72 h, adult aphids, 3 days, read-out: mortality in comparison with untreated controls; for B.2, 10 ppm / B.2, 25 ppm: comparative experiment, aphid mortality, unit not given
Text: B.2 Green Peach Aphid (Myzus persicae)
For evaluating control of green peach aphid (Myzus persicae) through systemic means the test unit consisted of 96-well-microtiter plates containing liquid artificial diet under an artificial mem brane.
The compounds were formulated using a solution containing 75% v/v water and 25% v/v DMSO. Different concentrations of formulated compounds were pipetted into the aphid diet, using a custom built pipetter, at two replications.
After application, 5-8 adult aphids were placed on the artificial membrane inside the microtiter plate wells. The aphids were then allowed to suck on the treated aphid diet and incubated at about 23±1° C. and about 50±5% relative humidity for 3 days. Aphid mortality and fecundity was then visually assessed.

[2] = system: Heliothis virescens; assay: B.3 Tobacco budworm, insect diet and eggs in microtiter plates; details: 120 h, egg and larval mortality, 5 days, read-out: mortality in comparison with untreated controls
Description: B.3 Tobacco Budworm (Heliothis virescens)
For evaluating control of tobacco budworm (Heliothis virescens) the test unit consisted of 96-well-microtiter plates containing an insect diet and 15-25 H. virescens eggs.
The compounds were formulated using a solution containing 75% v/v water and 25% v/v DMSO. Different concentrations of formulated compounds were sprayed onto the insect diet at 10 μl, using a custom-built micro atomizer, at two replications.
After application, microtiter plates were incubated at about 28±1° C. and about 80±5% relative humidity for 5 days. Egg and larval mortality was then visually assessed.

[3] = system: Anthonomus grandis; assay: B.4 Boll weevil, insect diet and eggs in microtiter plates; details: 120 h, egg and larval mortality, 5 days, read-out: mortality in comparison with untreated controls
Description: B.4 Boll Weevil (Anthonomus grandis)
For evaluating control of boll weevil (Anthonomus grandis) the test unit consisted of 96-well-microtiter plates containing an insect diet and 5-10 A. grandis eggs.
The compounds were formulated using a solution containing 75% v/v water and 25% v/v DMSO. Different concentrations of formulated compounds were sprayed onto the insect diet at 5 μl, using a custom-built micro atomizer, at two replications.
After application, microtiter plates were incubated at about 25±1° C. and about 75±5% relative humidity for 5 days. Egg and larval mortality was then visually assessed.

[4] = system: Dichromothrips corbetti; assay: B.6 Orchid thrips, floral-immersion technique; details: for mortality at 300 ppm: Dichromothrips corbetti, adult thrips, 72 hours after treatment, read-out: mortality in comparison with untreated controls; for B.6, 100 ppm: comparative experiment, thrips mortality, unit not given
Description: B.6 Orchid Thrips (Dichromothrips corbetti)
Dichromothrips corbetti adults used for bioassay were obtained from a colony maintained continuously under laboratory conditions. For testing purposes, the test compound is diluted in a 1:1 mixture of acetone:water (vol:vol), plus Kinetic HV at a rate of 0.01% v/v.
Thrips potency of each compound was evaluated by using a floral-immersion technique. All petals of individual, intact orchid flowers were dipped into treatment solution and allowed to dry in Petri dishes. Treated petals were placed into individual re-sealable plastic along with about 20 adult thrips. All test arenas were held under continuous light and a temperature of about 28° C. for duration of the assay. After 3 days, the numbers of live thrips were counted on each petal. The percent mortality was recorded 72 hours after treatment.

[5] = system: Plutella xylostella; assay: B.1 Diamond back moth, cabbage leaf dip test; details: foliar, 3rd instar larvae, 72 hours after treatment, read-out: mortality in comparison with untreated controls
Description: B.1 Diamond Back Moth (Plutella xylostella)
The active compound was dissolved at the desired concentration in a mixture of 1:1 (vol:vol) distilled water:acetone. Surfactant (Kinetic HV) was added at a rate of 0.01% (vol/vol). The test solution was prepared on the day of use.
Leaves of cabbage were dipped in test solution and air-dried. Treated leaves were placed in petri dishes lined with moist filter paper and inoculated with ten 3rd instar larvae. Mortality was recorded 72 hours after treatment. Feeding damages were also recorded using a scale of 0-100%.

[6] = system: Spodoptera eridania; assay: B.5 Southern armyworm, 2nd instar larvae, sprayed lima bean plants; details: 96 h, 4 days after treatment, read-out: mortality in comparison with untreated controls
Description: B.5. Southern Armyworm (Spodoptera eridania), 2nd Instar Larvae
The active compounds were formulated by a Tecan liquid handler in 100% cyclohexanone as a 10,000 ppm solution supplied in tubes. The 10,000 ppm solution was serially diluted in 100% cyclohexanone to make interim solutions. These served as stock solutions for which final dilutions were made by the Tecan in 50% acetone:50% water (v/v) into 10 or 20 ml glass vials. A nonionic surfactant (Kinetic®) was included in the solution at a volume of 0.01% (v/v). The vials were then inserted into an automated electrostatic sprayer equipped with an atomizing nozzle for application to plants/insects. Lima bean plants (variety Sieva) were grown 2 plants to a pot and selected for treatment at the 1st true leaf stage. Test solutions were sprayed onto the foliage by an automated electrostatic plant sprayer equipped with an atomizing spray nozzle. The plants were dried in the sprayer fume hood and then removed from the sprayer. Each pot was placed into perforated plastic bags with a zip closure. Ten to 11 armyworm larvae were placed into the bag and the bags zipped closed. Test plants were maintained in a growth room at about 25° C. and about 20-40% relative humidity for 4 days, avoiding direct exposure to fluorescent light (14:10 light:dark photoperiod) to prevent trapping of heat inside the bags. Mortality and reduced feeding were assessed 4 days after treatment, compared to untreated control plants.

[7] = system: Aedes aegypti; assay: B.7 Yellow fever mosquito, larvae in microtiter plates; details: comparative experiment, larval mortality after 2 days, unit not given
Description: B.7 Yellow Fever Mosquito (Aedes aegypti)
For evaluating control of yellow fever mosquito (Aedes aegypti) the test unit consisted of 96-well-microtiter plates containing 200 μl of tap water per well and 5-15 freshly hatched A. aegypti larvae.
The active compounds were formulated using a solution containing 75% (v/v) water and 25% (v/v) DMSO. Different concentrations of formulated compounds or mixtures were sprayed onto the insect diet at 2.5 μl, using a custom-built micro atomizer, at two replications.
After application, microtiter plates were incubated at 28±1° C., 80±5% RH for 2 days. Larval mortality was then visually assessed.

Structure (SMILES) | mortality at 2500 ppm [1] | mortality at 2500 ppm [2] | mortality at 2500 ppm [3] | mortality at 300 ppm [4] | mortality at 300 ppm [5] | mortality at 300 ppm [6] | B.2, 10 ppm [1] | B.6, 100 ppm [4] | B.2, 25 ppm [1] | B.7, 10 ppm [7]
CC(NC(=O)c1cc(Br)cc(C(F)(F)F)c1)c1nccnc1-n1ncn(C)c1=O (stereo not shown) [I-1, 3-bromo-N-[1-[3-(4-methyl-5-oxo-1,2,4-triazol-1-yl)pyrazin-2-yl]ethyl]-5-(trifluoromethyl)benzamide] | ≥ 75% | ≥ 75% | ≥ 75% | ≥ 75% | – | – | – | – | – | –
CC(NC(=O)c1cc(Br)cc(C(F)(F)F)c1)c1nccnc1-n1ncn(CC(F)(F)F)c1=O (stereo not shown) [I-2, 3-bromo-N-[1-[3-[5-oxo-4-(2,2,2-trifluoroethyl)-1,2,4-triazol-1-yl]pyrazin-2-yl]ethyl]-5-(trifluoromethyl)benzamide] | ≥ 75% | ≥ 75% | ≥ 75% | ≥ 75% | – | – | – | – | – | –
COc1ccc(Cn2cnn(-c3nccnc3C(C)NC(=O)c3cc(Br)cc(S(C)(=O)=O)c3)c2=O)cc1 (stereo not shown) [I-3, 3-bromo-N-[1-[3-[4-[(4-methoxyphenyl)methyl]-5-oxo-1,2,4-triazol-1-yl]pyrazin-2-yl]ethyl]-5-methylsulfonyl-benzamide] | ≥ 75% | – | – | – | – | – | – | – | – | –
CC(NC(=O)c1cc(Br)cc(S(C)(=O)=O)c1)c1nccnc1-n1ncn(CC2CC2)c1=O (stereo not shown) [I-5, 3-bromo-N-[1-[3-[4-(cyclopropylmethyl)-5-oxo-1,2,4-triazol-1-yl]pyrazin-2-yl]ethyl]-5-methylsulfonyl-benzamide] | ≥ 75% | – | ≥ 75% | – | ≥ 75% | ≥ 75% | – | – | – | –
CC(c1nccnc1-n1ncn(C)c1=O)N(C)C(=O)c1cc(Br)cc(S(C)(=O)=O)c1 (stereo not shown) [I-8, 3-bromo-N-methyl-N-[1-[3-(4-methyl-5-oxo-1,2,4-triazol-1-yl)pyrazin-2-yl]ethyl]-5-methylsulfonyl-benzamide] | ≥ 75% | – | – | – | – | – | – | – | – | –
CC(NC(=O)c1cc(C(F)(F)F)cc(C(F)(F)F)c1)c1nccnc1-n1ncn(C)c1=O (stereo not shown) [I-10] | ≥ 75% | ≥ 75% | ≥ 75% | ≥ 75% | ≥ 75% | ≥ 75% | 100 | 100 | – | –
CC(c1nccnc1-n1ncn(CC(F)(F)F)c1=O)N(CC1CC1)C(=O)c1cc(C(F)(F)F)cc(C(F)(F)F)c1 (stereo not shown) [I-15] | ≥ 75% | ≥ 75% | ≥ 75% | ≥ 75% | ≥ 75% | ≥ 75% | – | – | 100 | 100
CC(NC(=O)c1cc(C(F)(F)F)cc(C(F)(F)F)c1)c1nccnc1-n1cncn1 (stereo not shown) [WO2021/037614 P46, reference compound] | – | – | – | – | – | – | 25 | 0 | – | –
CC(c1nccnc1-n1cncn1)N(CC1CC1)C(=O)c1cc(C(F)(F)F)cc(C(F)(F)F)c1 (stereo not shown) [WO2021/037614 P48, reference compound] | – | – | – | – | – | – | – | – | 50 | 0
